Target: T1, acetylcholine muscarinic M1 receptor (hM1) (Homo sapiens, UniProt P11229)
T1 construct: expressed in transfected cells; host or cells: CHOnfat (CHO cells, Geneticin selection)
T1 sequence (P11229 1-460): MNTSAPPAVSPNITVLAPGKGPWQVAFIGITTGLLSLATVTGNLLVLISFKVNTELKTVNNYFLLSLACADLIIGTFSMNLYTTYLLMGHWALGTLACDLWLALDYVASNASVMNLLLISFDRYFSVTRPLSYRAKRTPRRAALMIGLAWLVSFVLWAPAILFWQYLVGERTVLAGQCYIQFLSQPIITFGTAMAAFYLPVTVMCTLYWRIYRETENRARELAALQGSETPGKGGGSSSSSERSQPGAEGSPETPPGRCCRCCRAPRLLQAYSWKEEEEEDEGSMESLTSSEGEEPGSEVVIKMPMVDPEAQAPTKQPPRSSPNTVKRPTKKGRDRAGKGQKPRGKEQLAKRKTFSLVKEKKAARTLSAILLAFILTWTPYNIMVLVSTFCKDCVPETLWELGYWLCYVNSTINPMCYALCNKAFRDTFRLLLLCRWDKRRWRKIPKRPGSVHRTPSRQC
Experiment: FLIPR intracellular calcium assay for M1 positive allosteric modulator activity in CHOnfat/hM1 cells
Type: cell-based
Details: 4 min preincubation, then acetylcholine EC20 (3 nM final), calculated from FLIPR values, read-out: IP Value (inflection point)
Procedure: The assay studies the effect of one or several concentrations of test compounds on basal or acetylcholine-stimulated Ca^2+ levels using FLIPR.
Compounds are prepared and subjected to a preincubation period of 4 min. Thereafter, a single EC20 concentration of acetylcholine is added to each well (3 nM final). The intracellular Ca^2+ level of each sample is measured and compared to an acetylcholine control to determine any modulatory activity.
Cells: CHOnfat/hM1, hM2, hM3 or hM4 cells are plated 24 hr before the assay at a density of 18,000 cells/well (100 μL) in a 384 well plate. CHOnfat/hM1 and CHOnfat/hM3 Growth Medium: 90% DMEM (Hi Glucose); 10% HI FBS; 2 mM L-glutamine; 0.1 mM NEAA; Pen-Strep; and 1 mg/ml Geneticin, are added. For M2Gqi5CHOnfat and M4Gqi5CHOnfat cells, an additional 600 ug/ml hygromycin is added.
Equipment: 384 well plate, 120 μL addition plate; 96-well Whatman 2 ml Uniplate Incubator, 37° C., 5% CO2; Skatron EMBLA-384 Plate Washer; Multimek Pipetting System; Genesis Freedom 200 System; Mosquito System; Temo Nanolitre Pipetting System; and FLIPR^384 Fluorometric Imaging Plate Reader System are used.
Buffers. Assay Buffer: […] Balanced Salt Solution, with 20 mM Hepes, 2.5 mM Probenecid (Sigma P-8761) first dissolved in 1 N NaOH, 1% Bovine Serum Albumin (Sigma A-9647). Dye Loading Buffer: Assay Buffer plus 1% Fetal Bovine Serum and Fluo-4AM/Pluronic Acid Mixture. 2 mM Fluo-4AM ester stock in DMSO (Molecular Probes F-14202) Concentration of 2 μM in buffer for a final concentration of 1 μM in Assay. 20% Pluronic Acid Solution stock, with concentration of 0.04% in Buffer, 0.02% in Assay.
65 μL of 2 mM Fluo-4AM are mixed with 130 μL of 20% Pluronic Acid. The resulting solution and 650 μL FBS is added to the assay buffer for a total volume of 65 mL. Positive Controls: 4-Br-A23187: 10 mM in DMSO; final concentration 10 μM. Acetylcholine: 10 mM in water, working stock at both 20 μM and 30 μM in assay buffer, final concentration of 10 μM. This is used to check the maximum stimulation of the CHOK1/hM1 cells. 20 μM (2×) acetylcholine is added in the preincubation part of the assay, and the 30 μM (3×) stock is added in the second part. (EC20) Acetylcholine: 10 mM in water, working stock of 9 nM (3×), and final concentration in assay is 3 nM. This is used after the preincubation with test compounds. Addition of the EC20 Acetylcholine to each well with a test compound will ascertain any modulator activity. 24 wells contain 3 nM Acetylcholine alone as a control.
Screening Plate Compounds are titrated in 96-well plates (columns 2-11), 100% DMSO, started at a concentration of 15 mM (150× stock concentration), and 3-fold serial dilutions using Genesis Freedom200 System. Four 96-well plates are combined into a 384-well plate using Mosquito Nanolitre Pipetting System by transferring 1 μl of serial diluted compounds to each well, and 1 mM acetylcholine (100× stock concentration) were added as a control. Using Temo, 49 μl assay buffer is added to each well of the 384-well plate right before assay.
In a 96-well Whatman 2 ml Uniplate, 9 nM Acetylcholine (3×) is pipetted into wells corresponding to the screening compounds, and into control wells. The 30 μM acetylcholine control (3×) is added into control wells, and the 3× agonist plate is transferred into a 384 well plate.
Cells are washed three times with 100 μL of buffer, leaving 30 μL of buffer in each well. Using Multimek, 30 μL of Dye Loading Buffer is added into each well and incubated at 37° C., 5% CO2 for up to one hr.
After 60 min, the cells are washed three times with 100 μL of buffer, leaving 30 μL of buffer in each well. The cell plate, screening plate, and agonist addition plates are placed on the platform in the FLIPR and the door closed. A signal test to check background fluorescence and basal fluorescence signal is performed. Laser intensity is adjusted if necessary. […]

EC50	Compound
15 nM	CSc1ccc(Cc2cc3c(=O)n([C@H]4CCCC[C@@H]4O)ccc3c3ncccc23)cn1 [Example 3]
1.7 nM	Cn1cc(-c2ccc(Cc3cc4c(=O)n([C@H]5CCCC[C@@H]5O)ccc4c4ncccc34)cn2)cn1 [Example 5]
72 nM	O=c1c2cc(Cc3ccnc(OC(F)F)c3)c3cccnc3c2ccn1[C@H]1CCCC[C@@H]1O [Example 4]
20.6 nM	COc1ccc(Cc2cc3c(=O)n([C@H]4CCOC[C@@H]4O)ccc3c3ncccc23)cn1 [Example 2, 1,5-Anhydro-2,3-dideoxy-3-{5-[(6-methoxypyridin-3-yl)methyl]-7-oxo-1,8-phenanthrolin-8(7H)-yl}-L-threo-pentitol]
28.6 nM	O=c1c2cc(Cc3cccnc3)c3cccnc3c2ccn1[C@H]1CCCC[C@@H]1O [Example 6, 8-[(1S,2S)-2-hydroxycyclohexyl]-5-(pyridin-3-ylmethyl)-1,8-phenanthrolin-7(8H)-one]
23.5 nM	O=c1c2cc(Cc3ccc(Cl)nc3)c3cccnc3c2ccn1[C@H]1CCCC[C@@H]1O [Example 1, 5-[(6-Chloropyridin-3-yl)methyl]-8-[(1S,2S)-2-hydroxycyclohexyl]-1,8-phenanthrolin-7(8H)-one]

Same assay, conditions: Table 1, unit inferred, potentiation of acetylcholine EC20 (3 nM final), read-out: H Pot.

EC50	Compound
16.8 nM	Cc1cc(Cc2cc3c(=O)n([C@H]4CCOC[C@@H]4O)ccc3c3ncccc23)ccn1 [Example 14]
24 nM	Cc1cc(Cc2cc3c(=O)n([C@H]4CCCC[C@@H]4O)ccc3c3ncccc23)ccn1 [Example 12]
55 nM	O=c1c2cc(Cc3ccc(OC(F)F)nc3)c3cccnc3c2ccn1[C@H]1CCCC[C@@H]1O [Example 13]
21.9 nM	COc1cc(Cc2cc3c(=O)n([C@H]4CCCC[C@@H]4O)ccc3c3ncccc23)ccn1 [Example 10]
20.5 nM	O=c1c2cc(Cc3ccnc(Cl)c3)c3cccnc3c2ccn1[C@H]1CCCC[C@@H]1O [Example 11]

Continued, molecule first:

Compound	EC50
COc1ccc(Cc2cc3c(=O)n([C@H]4CCOC[C@@H]4O)ccc3c3ncccc23)cc1 [Example 8]	6.2 nM
COc1ccc(Cc2cc3c(=O)n([C@H]4CCCC[C@@H]4O)ccc3c3ncccc23)cn1 [Example 9]	22.5 nM
COc1ccc(Cc2cc3c(=O)n([C@H]4CCCC[C@@H]4O)ccc3c3ncccc23)cc1 [Example 7]	21 nM

Source: patent US8557992B2, “Heterocyclic fused phenanthrolinone M1 receptor positive allosteric modulators” (Merck Sharp & Dohme Corp., priority 2010, dated 2013)
